This passage reports IC50 results from ChEMBL document CHEMBL1128027, “Total synthesis of a novel benz[A]anthracycline analog of the antitumor agent 4-demethoxydaunorubicin” (Bioorg Med Chem Lett, 1994).

Broadly, the IC50 is the concentration at which inhibition is half-maximal.

The assay has as its system CCRF-CEM. As to the kind of experiment: Cytotoxicity tested in vitro against T-lymphoid leukemic cell line. Type of assay: functional, cell-based. As to conditions: Homo sapiens.
Turning to `COc1cccc2c1C(=O)c1c(O)c3c(c(O)c1C2=O)C[C@@](O)(C(=O)CO)C[C@@H]3O[C@H]1C[C@H](N)[C@H](O)[C@H](C)O1` [DOXORUBICIN], the IC50 stood at 20 nM.

In the case of `CC(=O)[C@]1(O)Cc2c3c(c(O)c(O)c2[C@@H](OC2CC(N)C(O)C(C)O2)C1)C(=O)c1ccccc1C3=O` (stereo partly drawn), the midpoint of inhibition, the IC50, lay at 1000 nM.

For the molecule `CC(=O)[C@@]1(O)Cc2c3c(c(O)c(O)c2[C@H](OC2CC(N)C(O)C(C)O2)C1)C(=O)c1ccccc1C3=O` (stereo partly drawn), the IC50 is 1000 nM.
